From PubChem BioAssay (NCI)
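In this assay, cells in 96-well plates receive the compound at five concentrations for 48 hours. Endpoints are linearly interpolated between the surrounding concentrations. At the GI50, growth is halved. TGI is the concentration that stops growth completely.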

system: KM20L2 colon; test: NCI tumour cell line growth inhibition, 48 h

Structure (SMILES) | TGI
Cc1noc(/N=C2\C=C(Nc3onc(C)c3C)C(=O)c3ccccc32)c1C | > 100 µM

system: LXFL 529 NSCLC; test: NCI tumour cell line growth inhibition, 48 h

Structure (SMILES) | TGI | GI50
O=S1(=O)c2ccccc2N=C(c2ccccc2Cl)CC1c1ccc(F)cc1 (stereo unspecified) | 31.6 µM | 
CC1=CC(=O)NP(=O)(C23CC4CC(CC(C4)C2)C3)N1 (stereo unspecified) | > 100 µM | 
O=c1[nH]cc(C(F)(C(F)(F)F)C(F)(F)F)c(=O)[nH]1 | > 100 µM | 
COc1ccc2c(c1)c1c3n2CCNN=C3CCC1 | > 100 µM | 
CC(C)N1C(C)[C@@H](c2ccccc2)O[P@]1(=O)CC1=CCCCC1 (stereo partly specified) | > 100 µM | 
COC(=O)C(=O)C(C(=O)C(=O)Nc1cc(Cl)c(Cl)cc1Cl)c1nc2ccc([N+](=O)[O-])cc2[nH]c1=O (stereo unspecified) | > 100 µM | 
COc1ccc(NC(=O)C2C(=O)N(c3ccc(OC)cc3)C(=O)/C2=N\NC(N)=O)cc1 (stereo unspecified) | > 100 µM | 
C/C(=N\NS(=O)(=O)c1ccc([N+](=O)[O-])cc1)c1ccc[n+]([O-])n1 | 6.7 µM | 
S=c1c2ccccc2c(=S)n2n1CC=CC2 | > 100 µM | 
CC(C)(C)Sc1nnc(SC(C)(C)C)c2c(=O)[nH]nc(SC(C)(C)C)c12 | 23.1 µM | 
CCCCNC1=C(C(=O)OCC)/C(=N/NC(=O)c2ccccc2O)CO1 | > 100 µM | 
N#CC(C(=O)CCCC(=O)Nc1ccc(Cl)cc1Cl)c1ccc(Cl)cc1 (stereo unspecified) | > 100 µM | 
O=CCCCC(Sc1ccccc1)Sc1ccccc1 | 25.6 µM | 
COC(=O)/C(=N\Nc1nnc(C)n1N)C(C#N)c1ccccc1 (stereo unspecified) | > 100 µM | 
COc1ccc(C)cc1C1CCC(=O)O1 (stereo unspecified) | > 100 µM | 
Cc1ccc2nc(NC(=O)C(=O)CC(=O)c3cccc4ccccc34)sc2c1 | > 100 µM | 
O=C1CCC(=O)c2sccc2N1 | > 100 µM | 
CCCCCCCCCCCCCCCCCC(=O)NCC(COP(=O)(O)O)OCC (stereo unspecified) | > 100 µM | 
Cn1nc(-c2ccccc2)c(C(=O)/C=C/c2ccc(Cl)cc2)c(N2CCCC2)c1=O | 13 µM | 
O=C1C=Cc2ncccc2C1=O | 30.2 µM | 
C/C(CC(=O)Nc1cccc([N+](=O)[O-])c1)=N\NC(=O)CC#N | > 100 µM | 
[CH3][Sn]1([CH3])[O]CC(COc2cc(Cl)c(Cl)cc2Cl)[O]1 (stereo unspecified) | > 100 µM | 41.2 µM
CCc1cc(Cc2ccc(C)c(NC(=O)C(=O)C3C(=O)NC(=O)NC3=O)c2CC)cc(C)c1NC(=O)C(=O)C1C(=O)NC(=O)NC1=O | > 100 µM | 
CC(=O)OC(=O)O/C=C\CCl | > 100 µM | 
CC(=O)c1c2c(cc3c1CC1(C3)Cc3cc4c(c(C(=O)O)c3C1)CCC4)CCC2 (stereo unspecified) | > 100 µM | 
Cc1ccc(/C=N/NS(=O)(=O)c2ccccc2)c(C)c1 | > 100 µM | 
Cc1noc(/N=C2\C=C(Nc3onc(C)c3C)C(=O)c3ccccc32)c1C | > 100 µM | 

system: M19-MEL melanoma; test: NCI tumour cell line growth inhibition, 48 h

Structure (SMILES) | TGI
O=S1(=O)c2ccccc2N=C(c2ccccc2Cl)CC1c1ccc(F)cc1 (stereo unspecified) | 31.5 µM
CC1=CC(=O)NP(=O)(C23CC4CC(CC(C4)C2)C3)N1 (stereo unspecified) | > 100 µM
O=c1[nH]cc(C(F)(C(F)(F)F)C(F)(F)F)c(=O)[nH]1 | > 100 µM
COc1ccc2c(c1)c1c3n2CCNN=C3CCC1 | > 100 µM
CC(C)N1C(C)[C@@H](c2ccccc2)O[P@]1(=O)CC1=CCCCC1 (stereo partly specified) | > 100 µM
COC(=O)C(=O)C(C(=O)C(=O)Nc1cc(Cl)c(Cl)cc1Cl)c1nc2ccc([N+](=O)[O-])cc2[nH]c1=O (stereo unspecified) | > 100 µM
C/C(=N\NS(=O)(=O)c1ccc([N+](=O)[O-])cc1)c1ccc[n+]([O-])n1 | 5.05 µM
S=c1c2ccccc2c(=S)n2n1CC=CC2 | > 100 µM
CC(C)(C)Sc1nnc(SC(C)(C)C)c2c(=O)[nH]nc(SC(C)(C)C)c12 | 14.8 µM
CCCCNC1=C(C(=O)OCC)/C(=N/NC(=O)c2ccccc2O)CO1 | > 100 µM
O=CCCCC(Sc1ccccc1)Sc1ccccc1 | 39.8 µM
COC(=O)/C(=N\Nc1nnc(C)n1N)C(C#N)c1ccccc1 (stereo unspecified) | 32.8 µM
COc1ccc(C)cc1C1CCC(=O)O1 (stereo unspecified) | > 100 µM
Cc1ccc2nc(NC(=O)C(=O)CC(=O)c3cccc4ccccc34)sc2c1 | > 100 µM
O=C1CCC(=O)c2sccc2N1 | > 100 µM
CCCCCCCCCCCCCCCCCC(=O)NCC(COP(=O)(O)O)OCC (stereo unspecified) | > 100 µM
Cn1nc(-c2ccccc2)c(C(=O)/C=C/c2ccc(Cl)cc2)c(N2CCCC2)c1=O | 23.2 µM
CCc1cc(Cc2ccc(C)c(NC(=O)C(=O)C3C(=O)NC(=O)NC3=O)c2CC)cc(C)c1NC(=O)C(=O)C1C(=O)NC(=O)NC1=O | > 100 µM
CC(=O)OC(=O)O/C=C\CCl | > 100 µM
CC(=O)c1c2c(cc3c1CC1(C3)Cc3cc4c(c(C(=O)O)c3C1)CCC4)CCC2 (stereo unspecified) | > 100 µM
Cc1ccc(/C=N/NS(=O)(=O)c2ccccc2)c(C)c1 | > 100 µM
C#CCOCn1cnc2ncnc(N)c21 | > 100 µM
Cc1noc(/N=C2\C=C(Nc3onc(C)c3C)C(=O)c3ccccc32)c1C | 17.1 µM

system: MDA-N; test: NCI tumour cell line growth inhibition, 48 h

Structure (SMILES) | TGI | GI50
Cc1ccc(S(=O)(=O)NC(CO)C(=O)O)cc1 (stereo unspecified) | > 100 µM | 
CC(N1CCOCC1)C(O)(c1ccccc1)c1ccccn1 (stereo unspecified) | > 100 µM | 
CC(/C=N/N=C(N)N)=N\N=C(N)N | 354 µM | 26.8 µM
O=C(O)CCc1nc(-c2ccccc2-n2cccc2)no1 | > 100 µM | 
COC(=O)/C(=N\Nc1nnc(C)n1N)C(C#N)c1ccccc1 (stereo unspecified) | 44.4 µM | 
CNC(c1ccncc1)C(NC)c1ccncc1 (stereo unspecified) | > 100 µM | 
Nc1ccn(C2OC(C(OC3OC(CO)C(O)C(N)C3O)C(O)C(O)C(O)C(O)CO)C(N)C(O)C2O)c(=O)n1 (stereo unspecified) | > 100 µM | 
O=S(=O)(O)SCCNCCCCCC1CCCCC1 | 26.1 µM | 
CC(C(N)=O)N(C)C(=O)c1cnc2ccccc2c1 (stereo unspecified) | > 100 µM | 
CCCOC(=O)C1C2CCC(O2)C1C(=O)O (stereo unspecified) | > 100 µM | 
Cc1cc(Br)cc(C)c1NC(=O)C(=O)Nn1c(=S)[nH]c2ccccc2c1=O | > 100 µM | 
NNC(=O)C(O)C(O)C(=O)NN (stereo unspecified) | > 100 µM | 

system: P388 leukemia; test: NCI tumour cell line growth inhibition, 48 h

Structure (SMILES) | TGI
CC(/C=N/N=C(N)N)=N\N=C(N)N | 39.8 µM

system: P388/ADR leukemia; test: NCI tumour cell line growth inhibition, 48 h

Structure (SMILES) | TGI
CC(/C=N/N=C(N)N)=N\N=C(N)N | 352 µM

system: RXF-631 renal; test: NCI tumour cell line growth inhibition, 48 h

Structure (SMILES) | TGI
CC1=CC(=O)NP(=O)(C23CC4CC(CC(C4)C2)C3)N1 (stereo unspecified) | > 100 µM
O=c1[nH]cc(C(F)(C(F)(F)F)C(F)(F)F)c(=O)[nH]1 | > 100 µM
COc1ccc2c(c1)c1c3n2CCNN=C3CCC1 | > 100 µM
COC(=O)C(=O)C(C(=O)C(=O)Nc1cc(Cl)c(Cl)cc1Cl)c1nc2ccc([N+](=O)[O-])cc2[nH]c1=O (stereo unspecified) | > 100 µM
S=c1c2ccccc2c(=S)n2n1CC=CC2 | > 100 µM
CC(C)(C)Sc1nnc(SC(C)(C)C)c2c(=O)[nH]nc(SC(C)(C)C)c12 | 20.5 µM
N#CC(C(=O)CCCC(=O)Nc1ccc(Cl)cc1Cl)c1ccc(Cl)cc1 (stereo unspecified) | > 100 µM
O=CCCCC(Sc1ccccc1)Sc1ccccc1 | 40 µM
COC(=O)/C(=N\Nc1nnc(C)n1N)C(C#N)c1ccccc1 (stereo unspecified) | > 100 µM
CCCCCCCCCCCCCCCCCC(=O)NCC(COP(=O)(O)O)OCC (stereo unspecified) | 77.2 µM
Cn1nc(-c2ccccc2)c(C(=O)/C=C/c2ccc(Cl)cc2)c(N2CCCC2)c1=O | 50.5 µM
O=C1C=Cc2ncccc2C1=O | 39.5 µM
C/C(CC(=O)Nc1cccc([N+](=O)[O-])c1)=N\NC(=O)CC#N | > 100 µM
CCc1cc(Cc2ccc(C)c(NC(=O)C(=O)C3C(=O)NC(=O)NC3=O)c2CC)cc(C)c1NC(=O)C(=O)C1C(=O)NC(=O)NC1=O | > 100 µM
CC(=O)OC(=O)O/C=C\CCl | > 100 µM
Cc1ccc(/C=N/NS(=O)(=O)c2ccccc2)c(C)c1 | > 100 µM
Cc1noc(/N=C2\C=C(Nc3onc(C)c3C)C(=O)c3ccccc32)c1C | > 100 µM

system: SN12K1 renal; test: NCI tumour cell line growth inhibition, 48 h

Structure (SMILES) | TGI
CC(/C=N/N=C(N)N)=N\N=C(N)N | 30.1 µM

system: XF 498 CNS; test: NCI tumour cell line growth inhibition, 48 h

Structure (SMILES) | TGI | GI50
O=S1(=O)c2ccccc2N=C(c2ccccc2Cl)CC1c1ccc(F)cc1 (stereo unspecified) | 29 µM | 
CC(/C=N/N=C(N)N)=N\N=C(N)N | 12 µM | 
CC1=CC(=O)NP(=O)(C23CC4CC(CC(C4)C2)C3)N1 (stereo unspecified) | > 100 µM | 
O=c1[nH]cc(C(F)(C(F)(F)F)C(F)(F)F)c(=O)[nH]1 | > 100 µM | 
COc1ccc2c(c1)c1c3n2CCNN=C3CCC1 | > 100 µM | 
CC(C)N1C(C)[C@@H](c2ccccc2)O[P@]1(=O)CC1=CCCCC1 (stereo partly specified) | > 100 µM | 
COC(=O)C(=O)C(C(=O)C(=O)Nc1cc(Cl)c(Cl)cc1Cl)c1nc2ccc([N+](=O)[O-])cc2[nH]c1=O (stereo unspecified) | > 100 µM | 
C/C(=N\NS(=O)(=O)c1ccc([N+](=O)[O-])cc1)c1ccc[n+]([O-])n1 | 7.69 µM | 
CC(C)(C)Sc1nnc(SC(C)(C)C)c2c(=O)[nH]nc(SC(C)(C)C)c12 | 28.7 µM | 
CCCCNC1=C(C(=O)OCC)/C(=N/NC(=O)c2ccccc2O)CO1 | > 100 µM | 
N#CC(C(=O)CCCC(=O)Nc1ccc(Cl)cc1Cl)c1ccc(Cl)cc1 (stereo unspecified) | > 100 µM | 
O=CCCCC(Sc1ccccc1)Sc1ccccc1 | 42.6 µM | 
COC(=O)/C(=N\Nc1nnc(C)n1N)C(C#N)c1ccccc1 (stereo unspecified) | > 100 µM | 
COc1ccc(C)cc1C1CCC(=O)O1 (stereo unspecified) | 99.2 µM | 
Cc1ccc2nc(NC(=O)C(=O)CC(=O)c3cccc4ccccc34)sc2c1 | > 100 µM | 
O=C1CCC(=O)c2sccc2N1 | > 100 µM | 
CCCCCCCCCCCCCCCCCC(=O)NCC(COP(=O)(O)O)OCC (stereo unspecified) | > 100 µM | 
Cn1nc(-c2ccccc2)c(C(=O)/C=C/c2ccc(Cl)cc2)c(N2CCCC2)c1=O | 28.3 µM | 
O=C1C=Cc2ncccc2C1=O | 39.3 µM | 
C/C(CC(=O)Nc1cccc([N+](=O)[O-])c1)=N\NC(=O)CC#N | > 100 µM | 
[CH3][Sn]1([CH3])[O]CC(COc2cc(Cl)c(Cl)cc2Cl)[O]1 (stereo unspecified) | > 100 µM | 68 µM
CC(=O)c1c2c(cc3c1CC1(C3)Cc3cc4c(c(C(=O)O)c3C1)CCC4)CCC2 (stereo unspecified) | > 100 µM | 
Cc1ccc(/C=N/NS(=O)(=O)c2ccccc2)c(C)c1 | > 100 µM | 
C#CCOCn1cnc2ncnc(N)c21 | > 100 µM | 
Cc1noc(/N=C2\C=C(Nc3onc(C)c3C)C(=O)c3ccccc32)c1C | > 100 µM | 
